Experimental data taken from PubChem BioAssay AID328 (DTP/NCI, 2004).
Toxic doses and inconclusive results are not listed. Starred links: 1 amine or outer side, 2 acyl side, 3 side chain; linkers in the order of their positions; H or OH if unused. Positions of bridges follow the written chain, without caps; N, C: chain ends. Non-standard residues stand in square brackets, D forms with d. Residues, ends and D or L forms follow the SMILES beside them. ξ: configuration not given here. *: point of attachment. ξOrn(4,5-diOH) = O=C(C(CC(O)C(O)N[*:3])N[*:1])[*:2]; ξhTyr(βξ-OH,γξ-OH) = NC(C(=O)O)C(O)C(O)c1ccc(O)cc1; ξPro(3ξ-OH,4ξ-Me) = CC1CNC(C(=O)O)C1O; X4 = CCCCC/C=C/C/C=C\CCCCCCCC(=O)*; Hyp = O=C(O)[CH]1C[CH](O)CN1

System: BDF1 mice, P388 leukemia ip, median survival T/C
Experiment: NCI In Vivo Anticancer Drug Screen. Data for tumor model P388 Leukemia (intraperitoneal) in B6D2F1 (BDF1) mice
Settings: endpoint: median survival time, higher = longer survival
Outline: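 Each value expresses how treatment altered survival: treated-mouse outcome over vehicle-mouse outcome, both groups bearing the transplanted tumour.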

[1] = dose: 100.0 mg/kg/injection, schedule: Q01DX001 (ip), vehicle: Klucel (hydroxypropylcellulose) (HPC)
[2] = dose: 100.0 mg/kg/injection, schedule: Q04DX003 (ip), vehicle: Klucel (hydroxypropylcellulose) (HPC)
[3] = dose: 200.0 mg/kg/injection, schedule: Q01DX001 (ip), vehicle: Klucel (hydroxypropylcellulose) (HPC)
[4] = dose: 200.0 mg/kg/injection, schedule: Q04DX003 (ip), vehicle: Klucel (hydroxypropylcellulose) (HPC)
[5] = dose: 400.0 mg/kg/injection, schedule: Q01DX001 (ip), vehicle: Klucel (hydroxypropylcellulose) (HPC)
[6] = dose: 400.0 mg/kg/injection, schedule: Q04DX003 (ip), vehicle: Klucel (hydroxypropylcellulose) (HPC)
[7] = dose: 50.0 mg/kg/injection, schedule: Q01DX009 (ip), vehicle: saline with Tween-80
[8] = dose: 100.0 mg/kg/injection, schedule: Q01DX009 (ip), vehicle: saline with Tween-80
[9] = dose: 200.0 mg/kg/injection, schedule: Q01DX009 (ip), vehicle: saline with Tween-80
[10] = dose: 25.0 mg/kg/injection, schedule: Q04DX003 (ip), vehicle: saline with Tween-80
[11] = dose: 100.0 mg/kg/injection, schedule: Q04DX003 (ip), vehicle: saline with Tween-80
[12] = dose: 400.0 mg/kg/injection, schedule: Q01DX009 (ip), vehicle: saline with Tween-80
[13] = dose: 50.0 mg/kg/injection, schedule: Q01DX009 (ip), vehicle: Klucel (hydroxypropylcellulose) (HPC)
[14] = dose: 100.0 mg/kg/injection, schedule: Q01DX009 (ip), vehicle: Klucel (hydroxypropylcellulose) (HPC)
[15] = dose: 200.0 mg/kg/injection, schedule: Q01DX009 (ip), vehicle: Klucel (hydroxypropylcellulose) (HPC)
[16] = dose: 400.0 mg/kg/injection, schedule: Q01DX009 (ip), vehicle: Klucel (hydroxypropylcellulose) (HPC)
[17] = dose: 100.0 mg/kg/injection, schedule: Q01DX009 (ip), vehicle: other
[18] = dose: 200.0 mg/kg/injection, schedule: Q01DX009 (ip), vehicle: other
[19] = dose: 6.25 mg/kg/injection, schedule: Q01DX009 (ip), vehicle: Klucel (hydroxypropylcellulose) (HPC)
[20] = dose: 12.5 mg/kg/injection, schedule: Q01DX009 (ip), vehicle: Klucel (hydroxypropylcellulose) (HPC)
[21] = dose: 200.0 mg/kg/injection, schedule: Q04DX003 (ip), vehicle: saline with Tween-80

Structure (SMILES): CCOC(=O)CCCl
- T/C [1]: 95 % of control
- T/C [2]: 100 % of control
- T/C [3]: 104 % of control
- T/C [4]: 104 % of control
- T/C [5]: 91 % of control
- T/C [6]: 100 % of control

Structure (SMILES): CCP(=Nc1cc(C(C)(C)C)cc(C(C)(C)C)c1O)(c1ccccc1)c1ccccc1
- T/C [7]: 96 % of control
- T/C [8]: 91 % of control
- T/C [9]: 89 % of control

Structure (SMILES): COc1ccc(NC(=S)NN)cc1
- T/C [10]: 100 % of control
- T/C (dose: 50.0 mg/kg/injection, schedule: Q04DX003 (ip), vehicle: saline with Tween-80): 100 % of control
- T/C (dose: 66.0 mg/kg/injection, schedule: Q04DX003 (ip), vehicle: saline with Tween-80): 100 % of control
- T/C [11]: 100 % of control
- T/C (dose: 150.0 mg/kg/injection, schedule: Q04DX003 (ip), vehicle: saline with Tween-80): 90 % of control

Structure (SMILES): Nc1ccc(OS(=O)(=O)c2ccccc2)cc1
- T/C [7]: 98 % of control
- T/C [8]: 108 % of control
- T/C [9]: 100 % of control
- T/C [12]: 90 % of control

Structure (SMILES): CCOC(=O)C(C#N)C(C)CC (configuration not stated)
- T/C (dose: 25.0 mg/kg/injection, schedule: Q01DX009 (ip), vehicle: Klucel (hydroxypropylcellulose) (HPC)): 90 % of control
- T/C [13]: 104 % of control
- T/C [14]: 100 % of control
- T/C [2]: 87 % of control
- T/C [15]: 95 % of control
- T/C [4]: 104 % of control
- T/C [16]: 90 % of control
- T/C [6]: 95 % of control

Structure (SMILES): CCCCC/C=C/C/C=C\CCCCCCCC(=O)NC1CC(O)C(O)NC(=O)C2C(O)C(C)CN2C(=O)C(C(C)O)NC(=O)C(C(O)C(O)c2ccc(O)cc2)NC(=O)C2CC(O)CN2C(=O)C(C(C)O)NC1=O (stereo not drawn) (X4-[ξOrn(4,5-diOH)]T[Hyp][ξhTyr(βξ-OH,γξ-OH)]T[ξPro(3ξ-OH,4ξ-Me)]; lactam 1-C; configuration not given here)
- T/C (dose: 0.5 mg/kg/injection, schedule: Q01DX009 (ip), vehicle: lactate): 100 % of control
- T/C (dose: 1.0 mg/kg/injection, schedule: Q01DX009 (ip), vehicle: lactate): 102 % of control
- T/C (dose: 2.0 mg/kg/injection, schedule: Q01DX009 (ip), vehicle: lactate): 102 % of control
- T/C (dose: 4.0 mg/kg/injection, schedule: Q01DX009 (ip), vehicle: lactate): 100 % of control

Structure (SMILES): CCOc1cc(C=Nc2cc(Cl)c(O)c(Cl)c2)ccc1N(CCCl)CCCl
- T/C (dose: 16.0 mg/kg/injection, schedule: Q04DX003 (ip), vehicle: saline with Tween-80): 154 % of control
- T/C (dose: 16.5 mg/kg/injection, schedule: Q04DX003 (ip), vehicle: saline with Tween-80): 157 % of control
- T/C [10]: 173 % of control
- T/C (dose: 37.5 mg/kg/injection, schedule: Q04DX003 (ip), vehicle: saline with Tween-80): 207 % of control

Structure (SMILES): C=CC1C2CCC(C2)C1Cl (configuration not stated)
- T/C (dose: 50.0 mg/kg/injection, schedule: Q01DX009 (ip), vehicle: other): 100 % of control
- T/C [17]: 104 % of control
- T/C [18]: 107 % of control

Structure (SMILES): Clc1cc(CBr)c(Cl)c(Cl)c1CBr
- T/C [19]: 109 % of control
- T/C (dose: 6.25 mg/kg/injection, schedule: Q01DX009 (ip), vehicle: saline): 100 % of control
- T/C (dose: 6.25 mg/kg/injection, schedule: Q04DX003 (ip), vehicle: saline sonified): 95 % of control
- T/C [20]: 109 % of control
- T/C (dose: 12.5 mg/kg/injection, schedule: Q01DX009 (ip), vehicle: saline): 103 % of control
- T/C (dose: 12.5 mg/kg/injection, schedule: Q04DX003 (ip), vehicle: saline sonified): 100 % of control
- T/C (dose: 25.0 mg/kg/injection, schedule: Q01DX009 (ip), vehicle: saline): 110 % of control
- T/C (dose: 25.0 mg/kg/injection, schedule: Q04DX003 (ip), vehicle: saline sonified): 100 % of control

Structure (SMILES): CCOc1nc(OCC)nc(-c2cccn2-c2ccccc2)n1
- T/C [1]: 100 % of control
- T/C [14]: 86 % of control
- T/C [3]: 104 % of control
- T/C [15]: 100 % of control
- T/C [5]: 90 % of control
- T/C [16]: 104 % of control

Structure (SMILES): N#Cc1c[nH]n2c(=S)ncnc12
- T/C [7]: 107 % of control
- T/C [8]: 90 % of control
- T/C [11]: 104 % of control
- T/C [9]: 93 % of control
- T/C [21]: 109 % of control
- T/C (dose: 300.0 mg/kg/injection, schedule: Q01DX009 (ip), vehicle: saline with Tween-80): 99 % of control

Structure (SMILES): CCC(O)(c1ccc(OC)cc1)C(c1ccccc1)c1ccccn1 (configuration not stated)
- T/C (dose: 31.25 mg/kg/injection, schedule: Q01DX009 (ip), vehicle: saline with Tween-80): 103 % of control
- T/C (dose: 62.5 mg/kg/injection, schedule: Q01DX009 (ip), vehicle: saline with Tween-80): 103 % of control
- T/C (dose: 125.0 mg/kg/injection, schedule: Q01DX009 (ip), vehicle: saline with Tween-80): 100 % of control

Structure (SMILES): CCCCCCCSCCSCCSCCCCCCC
- T/C [1]: 100 % of control
- T/C [3]: 100 % of control
- T/C [5]: 100 % of control

Structure (SMILES): CC(C)(C)OC(=O)NCC(=O)NNC(=O)OC(C)(C)C
- T/C (dose: 100.0 mg/kg/injection, schedule: Q04DX003 (ip), vehicle: saline): 104 % of control
- T/C (dose: 200.0 mg/kg/injection, schedule: Q04DX003 (ip), vehicle: saline): 113 % of control
- T/C (dose: 400.0 mg/kg/injection, schedule: Q04DX003 (ip), vehicle: saline): 104 % of control

Structure (SMILES): N=c1scc(CC(=O)O)n1N
- T/C (dose: 50.0 mg/kg/injection, schedule: Q01DX009 (ip), vehicle: saline): 92 % of control
- T/C (dose: 100.0 mg/kg/injection, schedule: Q01DX009 (ip), vehicle: saline): 108 % of control
- T/C (dose: 200.0 mg/kg/injection, schedule: Q01DX009 (ip), vehicle: saline): 92 % of control

Structure (SMILES): COc1cc2c(cc1OC)C1CCc3cc4c(cc3C1N=C2)OCO4 (configuration not stated)
- T/C (dose: 20.0 mg/kg/injection, schedule: Q01DX009 (ip), vehicle: saline): 100 % of control
- T/C (dose: 40.0 mg/kg/injection, schedule: Q01DX009 (ip), vehicle: saline): 105 % of control
- T/C (dose: 80.0 mg/kg/injection, schedule: Q01DX009 (ip), vehicle: saline): 105 % of control
- T/C (dose: 120.0 mg/kg/injection, schedule: Q01DX009 (ip), vehicle: saline): 105 % of control
- T/C (dose: 240.0 mg/kg/injection, schedule: Q01DX009 (ip), vehicle: saline): 100 % of control

Structure (SMILES): CCCCn1c(Cl)c(/C=N\Nc2ccccc2[N+](=O)[O-])c2ccccc21
- T/C [3]: 89 % of control

Structure (SMILES): O=c1[nH]c(=O)n(CCc2cccs2)cc1F
- T/C [7]: 106 % of control
- T/C [8]: 101 % of control
- T/C [11]: 94 % of control
- T/C [9]: 108 % of control
- T/C [21]: 108 % of control
- T/C [12]: 90 % of control
- T/C (dose: 400.0 mg/kg/injection, schedule: Q04DX003 (ip), vehicle: saline with Tween-80): 92 % of control

Structure (SMILES): CC(/C=N/NC(=[N-])N)=N\N=C(/[NH-])N.[Ni+2]
- T/C [19]: 97 % of control
- T/C [20]: 97 % of control

Structure (SMILES): CCCCn1cnc2c(SC3CCCC3)ncnc21
- T/C [17]: 100 % of control
- T/C (dose: 100.0 mg/kg/injection, schedule: Q04DX003 (ip), vehicle: saline sonified): 100 % of control
- T/C [18]: 90 % of control
- T/C (dose: 200.0 mg/kg/injection, schedule: Q04DX003 (ip), vehicle: saline sonified): 100 % of control
- T/C (dose: 400.0 mg/kg/injection, schedule: Q01DX009 (ip), vehicle: other): 120 % of control
- T/C (dose: 400.0 mg/kg/injection, schedule: Q04DX003 (ip), vehicle: saline sonified): 100 % of control

Structure (SMILES): CCN(CC)C(=O)c1ccc([N+](=O)[O-])cc1
- T/C [13]: 103 % of control
- T/C (dose: 50.0 mg/kg/injection, schedule: Q04DX003 (ip), vehicle: Klucel (hydroxypropylcellulose) (HPC)): 95 % of control
- T/C [14]: 100 % of control
- T/C [15]: 89 % of control
- T/C [4]: 104 % of control

Structure (SMILES): CNC(=O)NC1C(O)COC(OC)C1O (configuration not stated)
- T/C (dose: 150.0 mg/kg/injection, schedule: Q01DX001 (ip), vehicle: saline): 104 % of control
- T/C (dose: 300.0 mg/kg/injection, schedule: Q01DX001 (ip), vehicle: saline): 109 % of control
